Laboratory results from US12059409B1, “Pharmaceutical composition for modified release” (ASTELLAS PHARMA INC., priority 2008, dated 2024).

Assay: Clinical trial of compound A in conventional formulations (not published)
Details: human, in vivo; read-out: elimination half-life (T1/2)
Excerpt: These problems are considered to be raised by, for example, the changes in pharmacokinetics caused by food, and therefore, the development of a formulation capable of avoiding the effects by food intake is desired.
Taking into consideration the results of the clinical trial described above, the present inventors conducted intensive studies to design the formulation by paying attention to the control of a release rate of the drug from a formulation to the extent that the release is not affected by food intake or the like, rather than the addition of release control.
On the basis of blood concentration profiles (in a fasted state/after the intake of food) after administration of a conventional formulation (rapid release formulation), the absorption rate of the drug in a fed state was calculated by a deconvolution method to predict continuous absorption for about 4 hours.

Nc1nc(CC(=O)Nc2ccc(CCNC[C@H](O)c3ccccc3)cc2)cs1 [compound A, (R)-2-(2-aminothiazol-4-yl)-4′-[2-[(2-hydroxy-2-phenylethyl)amino]ethyl]acetic acid anilide]
half-life: 18 to 24 h
